Where no end group is shown, it is not given here.
Tested on: S. aureus (ATCC 29213)
Test: MIC, standard microtiter dilution (CLSI)
Type: cell-based
Conditions: broth microdilution (CLSI), CAMHB, 10^6 CFU/mL, 37 °C, 24 h; highest MIC of three independent experiments in triplicate
Procedure, shortened: (§1)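 Broth microdilution per CLSI: overnight cultures diluted in cation-adjusted Mueller Hinton Broth to 10^6 CFU/mL, mixed with 2-fold serial peptide dilutions, incubated 37 °C for 24 h. MIC = lowest peptide concentration inhibiting growth. Three independent assays in triplicate.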

Substance | MIC, S. aureus (ATCC 29213)
Ac-RWARRWARWWRR-NH2 [6c] | 50 µg/mL
Ac-RWIRRWIRWWRR-NH2 [7c] | 6.2 µg/mL
Ac-RWLRRWLRWWRR-NH2 [8c] | 6.2 µg/mL
KWAKKWAKWWKK-NH2 [6b] | 100 µg/mL

Same assay, conditions: value in parentheses (μM); broth microdilution (CLSI), CAMHB, 37 °C, 24 h

Substance | MIC, S. aureus (ATCC 29213)
Ac-RWARRWARWWRR-NH2 [6c] | 26.55 µM
Ac-RWIRRWIRWWRR-NH2 [7c] | 3.15 µM
Ac-RWLRRWLRWWRR-NH2 [8c] | 3.15 µM
KWAKKWAKWWKK-NH2 [6b] | 59.77 µM

Tested on: E. coli (ATCC 25922)
Test: not given
Conditions: broth microdilution (CLSI), CAMHB, 10^6 CFU/mL, 37 °C, 24 h; highest MIC of three independent experiments in triplicate
Procedure, shortened: as §1

Substance | MIC, E. coli (ATCC 25922)
Ac-RWARRWARWWRR-NH2 [6c] | 100 µg/mL
Ac-RWIRRWIRWWRR-NH2 [7c] | 12.5 µg/mL
Ac-RWLRRWLRWWRR-NH2 [8c] | 12.5 µg/mL
KWAKKWAKWWKK-NH2 [6b] | > 100 µg/mL

Same assay, conditions: value in parentheses (μM); broth microdilution (CLSI), CAMHB, 37 °C, 24 h

Substance | MIC, E. coli (ATCC 25922)
Ac-RWARRWARWWRR-NH2 [6c] | 53.10 µM
Ac-RWIRRWIRWWRR-NH2 [7c] | 6.35 µM
Ac-RWLRRWLRWWRR-NH2 [8c] | 6.35 µM
KWAKKWAKWWKK-NH2 [6b] | > 59.77 µM

Tested on: MRSA (ATCC BAA-1556)
Test: not given
Conditions: broth microdilution (CLSI), CAMHB, 10^6 CFU/mL, 37 °C, 24 h; highest MIC of three independent experiments in triplicate
Procedure, shortened: as §1

Substance | MIC, MRSA (ATCC BAA-1556)
Ac-RWARRWARWWRR-NH2 [6c] | 50 µg/mL
Ac-RWIRRWIRWWRR-NH2 [7c] | 6.2 µg/mL
Ac-RWLRRWLRWWRR-NH2 [8c] | 6.2 µg/mL
KWAKKWAKWWKK-NH2 [6b] | 100 µg/mL

Same assay, conditions: value in parentheses (μM); broth microdilution (CLSI), CAMHB, 37 °C, 24 h

Substance | MIC, MRSA (ATCC BAA-1556)
Ac-RWARRWARWWRR-NH2 [6c] | 26.55 µM
Ac-RWIRRWIRWWRR-NH2 [7c] | 3.15 µM
Ac-RWLRRWLRWWRR-NH2 [8c] | 3.15 µM
KWAKKWAKWWKK-NH2 [6b] | 59.77 µM

Tested on: P. aeruginosa (ATCC 27883)
Test: MIC, standard microtiter dilution (CLSI)
Type: cell-based, Pseudomonas aeruginosa
Conditions: broth microdilution (CLSI), CAMHB, 10^6 CFU/mL, 37 °C, 24 h; highest MIC of three independent experiments in triplicate
Procedure, shortened: as §1

Substance | MIC, P. aeruginosa (ATCC 27883)
Ac-RWARRWARWWRR-NH2 [6c] | 100 µg/mL
Ac-RWIRRWIRWWRR-NH2 [7c] | 6.2 µg/mL
Ac-RWLRRWLRWWRR-NH2 [8c] | 12.5 µg/mL
KWAKKWAKWWKK-NH2 [6b] | > 100 µg/mL

Same assay, conditions: value in parentheses (μM); broth microdilution (CLSI), CAMHB, 37 °C, 24 h

Substance | MIC, P. aeruginosa (ATCC 27883)
Ac-RWARRWARWWRR-NH2 [6c] | 53.10 µM
Ac-RWIRRWIRWWRR-NH2 [7c] | 3.15 µM
Ac-RWLRRWLRWWRR-NH2 [8c] | 6.35 µM
KWAKKWAKWWKK-NH2 [6b] | > 59.77 µM

Tested on: K. pneumoniae (ATCCBAA-1705)
Test: MIC, standard microtiter dilution (CLSI)
Type: cell-based, Klebsiella pneumoniae
Conditions: broth microdilution (CLSI), CAMHB, 10^6 CFU/mL, 37 °C, 24 h; highest MIC of three independent experiments in triplicate
Procedure, shortened: as §1

Substance | MIC, K. pneumoniae (ATCCBAA-1705)
Ac-RWARRWARWWRR-NH2 [6c] | > 100 µg/mL
Ac-RWIRRWIRWWRR-NH2 [7c] | 25 µg/mL
Ac-RWLRRWLRWWRR-NH2 [8c] | 12.5 µg/mL
KWAKKWAKWWKK-NH2 [6b] | > 100 µg/mL

Same assay, conditions: value in parentheses (μM); broth microdilution (CLSI), CAMHB, 37 °C, 24 h

Substance | MIC, K. pneumoniae (ATCCBAA-1705)
Ac-RWARRWARWWRR-NH2 [6c] | > 53.10 µM
Ac-RWIRRWIRWWRR-NH2 [7c] | 12.70 µM
Ac-RWLRRWLRWWRR-NH2 [8c] | 6.35 µM
KWAKKWAKWWKK-NH2 [6b] | > 59.77 µM

Tested on: human red blood cells (hRBCs)
Test: Hemolytic assay
Type: cell-based
Conditions: hRBC suspension 4% in PBS, 2 h, 37 °C, hemoglobin release at 567 nm; 1% Triton X-100 = 100%
Procedure, shortened: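 Peptides in 2-fold serial dilutions mixed 1:1 with 4% hRBC suspension in PBS and held 2 h at 37 °C unshaken. Hemoglobin release in supernatant read at 567 nm; % hemolysis scaled between PBS (0%) and 1% Triton X-100 (100%).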

Substance | HC50 (concentration at which 50% hemolysis was observed)
Ac-RWARRWARWWRR-NH2 [6c] | 110 µg/mL
Ac-RWIRRWIRWWRR-NH2 [7c] | 40 µg/mL
Ac-RWLRRWLRWWRR-NH2 [8c] | 30 µg/mL
KWAKKWAKWWKK-NH2 [6b] | > 500 µg/mL

Same assay, conditions: value in parentheses (μM); hRBC 4% in PBS, 2 h, 37 °C, 567 nm

Substance | HC50 (concentration at which 50% hemolysis was observed)
Ac-RWARRWARWWRR-NH2 [6c] | 58.41 µM
Ac-RWIRRWIRWWRR-NH2 [7c] | 20.33 µM
Ac-RWLRRWLRWWRR-NH2 [8c] | 15.25 µM
KWAKKWAKWWKK-NH2 [6b] | > 298.85 µM

Tested on: not listed separately
Test: Relative hydrophobicity as RP-HPLC retention time
Type: physicochemical
Conditions: chromatographic, Phenomenex Luna C18 4 μm 150 × 4.6 mm, linear AB gradient 1% acetonitrile/min, 0.3 mL/min, A water 0.1% TFA, B acetonitrile 0.1% TFA, 25 °C
Protocol: The purity analysis of the peptides was conducted on a RP-HPLC system (Shimadzu; LC-20ADXR) by using a Phenomenex (Luna) analytical C18 column (4 μm, 150 × 4.6 mm). The mass of the purified peptides was determined in the positive-ion mode using Q-TOF LC/MS (Compass Hystar 4.1, Bruker, USA). The purity (>95%) and mass data of all the synthesized peptides are provided in the Supporting Information.
8. Comparative Hydrophobicity analysis
The purity of all synthesized peptides was determined using reverse phase analytical HPLC
(Shimadzu; LC-20ADXR). Below mentioned are the conditions used to conduct the purity
Column: Phenomenex (Luna), 4 um, C18, 150 × 4.6 mm
Mobile Phase: Buffer A-Water containing 0.1% TFA,
Buffer B-Acetonitrile containing 0.1% TFA
Figure S52. HPLC chromatogram of 6a.
(1 picture or pasted object on this page, not shown here)

Substance | tR, RP-HPLC retention time (measure of overall hydrophobicity)
Ac-RWARRWARWWRR-NH2 [6c] | 34.61 min
Ac-RWIRRWIRWWRR-NH2 [7c] | 40.63 min
Ac-RWLRRWLRWWRR-NH2 [8c] | 41.20 min
KWAKKWAKWWKK-NH2 [6b] | 28.98 min

Tested on: not listed separately
Test: CD spectroscopy, helicity;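 on % of helicity induced by Liposomes: share of the total helicity with liposomes gained over the same peptide in PBS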;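 on % of helicity induced by TFE: share of the total helicity in TFE gained over the same peptide in PBS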
Type: physicochemical
Parameters: key to Δ[θ]222 induced by TFE / Δ[θ]222 induced by Liposomes: mean residue molar ellipticity, mdeg cm2/(dmol × res)
Conditions: CD at 222 nm, 25 °C, aqueous buffer containing 50% TFE
Protocol: The CD spectra of peptides were recorded using a Jasco J-1500 CD spectrophotometer (Jasco, Easton, MD) at 25 °C with a 1 mm path length cell. Wavelengths from 190 to 260 nm were scanned with 1.0 nm step resolution, 100 nm/min speed, 0.4 s response time, and 1 nm bandwidth. CD spectra of the peptides were collected and averaged over three scans in 10 mM sodium phosphate buffer (pH 7.2), helix-inducing solvent 50% TFE (v/v), and bacterial mimic liposomes (75 μM lipid). Spectra were corrected by subtracting a baseline spectrum containing only buffer or 50% TFE or liposomes. The mean residue molar ellipticity was calculated using the formula [drawing 3] where Ab222 is the absorbance observed at 222 nm, MRW is the mean residue molecular weight, C is the concentration in mg/mL, and L is the path length.
Table S1. RP-HPLC retention times and CD spectroscopy analysis of the selected peptides Peptide tR (min)a [θ]222b Δ[θ]222 induced by % of helicity inducedc by PBS TFE Liposomes TFE Liposomes TFE Liposomes […]
atR (min) denotes the retention time at 25°C by RP-HPLC. bThe mean residue molar ellipticity [θ] 222 (mdeg cm2/(dmol × res)) at 222 nm was measured at 25 °C in phosphate buffer saline (PBS, pH 7.0), in aqueous buﬀer containing 50% TFE (TFE), or in presence of bacterial membrane mimicking liposomes (peptide:lipid […]
c% helix induced is the increase in the molar ellipticity at 222 nm (in percentage) of a peptide in the presence of TFE or liposomes.

Substance | [θ]222 mean residue molar ellipticity, TFE
Ac-RWARRWARWWRR-NH2 [6c] | -18280 mdeg cm2/(dmol × res)
Ac-RWIRRWIRWWRR-NH2 [7c] | -10279 mdeg cm2/(dmol × res)
Ac-RWLRRWLRWWRR-NH2 [8c] | -13735 mdeg cm2/(dmol × res)
KWAKKWAKWWKK-NH2 [6b] | -14689 mdeg cm2/(dmol × res)

Same assay, conditions: CD at 222 nm, 25 °C, bacterial membrane mimicking liposomes, peptide:lipid molar ratio 1:1.05

Substance | [θ]222 mean residue molar ellipticity, Liposomes
Ac-RWARRWARWWRR-NH2 [6c] | -20250 mdeg cm2/(dmol × res)
Ac-RWIRRWIRWWRR-NH2 [7c] | -19297 mdeg cm2/(dmol × res)
Ac-RWLRRWLRWWRR-NH2 [8c] | -19930 mdeg cm2/(dmol × res)
KWAKKWAKWWKK-NH2 [6b] | -20391 mdeg cm2/(dmol × res)

Same assay, conditions: CD at 222 nm, 25 °C, phosphate buffer saline pH 7.0

Substance | [θ]222 mean residue molar ellipticity, PBS
Ac-RWARRWARWWRR-NH2 [6c] | -10947 mdeg cm2/(dmol × res)
Ac-RWIRRWIRWWRR-NH2 [7c] | -3192 mdeg cm2/(dmol × res)
Ac-RWLRRWLRWWRR-NH2 [8c] | -8173 mdeg cm2/(dmol × res)
KWAKKWAKWWKK-NH2 [6b] | -7476 mdeg cm2/(dmol × res)

Same assay, conditions: difference to PBS; 50% TFE

Substance | Δ[θ]222 induced by TFE
Ac-RWARRWARWWRR-NH2 [6c] | -7332
Ac-RWIRRWIRWWRR-NH2 [7c] | -7087
Ac-RWLRRWLRWWRR-NH2 [8c] | -5562
KWAKKWAKWWKK-NH2 [6b] | -7212

Same assay, conditions: difference to PBS; bacterial membrane mimicking liposomes

Substance | Δ[θ]222 induced by Liposomes
Ac-RWARRWARWWRR-NH2 [6c] | -9303
Ac-RWIRRWIRWWRR-NH2 [7c] | -16105
Ac-RWLRRWLRWWRR-NH2 [8c] | -11757
KWAKKWAKWWKK-NH2 [6b] | -12915

Same assay, conditions: increase in molar ellipticity at 222 nm in the presence of 50% TFE

Substance | % of helicity induced by TFE
Ac-RWARRWARWWRR-NH2 [6c] | 40.11%
Ac-RWIRRWIRWWRR-NH2 [7c] | 68.94%
Ac-RWLRRWLRWWRR-NH2 [8c] | 40.49%
KWAKKWAKWWKK-NH2 [6b] | 49.10%

Same assay, conditions: increase in molar ellipticity at 222 nm in the presence of liposomes

Substance | % of helicity induced by Liposomes
Ac-RWARRWARWWRR-NH2 [6c] | 45.93%
Ac-RWIRRWIRWWRR-NH2 [7c] | 83.45%
Ac-RWLRRWLRWWRR-NH2 [8c] | 58.99%
KWAKKWAKWWKK-NH2 [6b] | 63.33%

Source: publication PMC9841524, “Structure-Based Rational Design of Small α-Helical Peptides with Broad-Spectrum Activity against Multidrug-Resistant Pathogens” (Journal of Medicinal Chemistry, 2022)
